Measurements reported in patent publication US20050137223A1, “Glucoimidazole and polyhydroxycyclohexenyl amine derivatives to treat gaucher disease” (Amicus Therapeutics, Inc., priority 2003, published 2005).
Changes are numbered by the printed parent chain. Read-outs that look alike come from different tables or passages of the source.

Experiments:
GCase [1] = biological target: T1, GCase (Homo sapiens, UniProt P04062); assay: Inhibitory activity against GCase (4-methylumbelliferyl β-glucoside substrate); format: biochemical; details: for IC50: human GCase, 3 mM 4-MU β-glucoside, pH 5.2, 37° C., 30 min; for increase of inhibitory potency relative to 2-PE-GIZ: phenylethyl group replaced with octyl or dimethylbutyl at the same position
T1 sequence (P04062 40-536): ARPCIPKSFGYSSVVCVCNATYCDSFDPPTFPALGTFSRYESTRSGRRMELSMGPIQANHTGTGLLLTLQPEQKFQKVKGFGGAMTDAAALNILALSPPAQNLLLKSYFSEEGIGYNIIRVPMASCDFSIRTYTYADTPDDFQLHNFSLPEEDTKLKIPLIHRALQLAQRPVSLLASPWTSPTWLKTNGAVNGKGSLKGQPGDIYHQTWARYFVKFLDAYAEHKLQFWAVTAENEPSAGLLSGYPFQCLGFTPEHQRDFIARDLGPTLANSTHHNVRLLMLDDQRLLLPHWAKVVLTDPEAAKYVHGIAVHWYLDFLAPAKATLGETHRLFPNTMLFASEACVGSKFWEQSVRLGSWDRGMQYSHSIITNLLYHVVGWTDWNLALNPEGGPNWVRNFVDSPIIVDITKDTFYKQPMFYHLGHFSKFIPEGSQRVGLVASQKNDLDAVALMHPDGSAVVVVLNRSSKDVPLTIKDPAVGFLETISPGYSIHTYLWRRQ
Procedure: Methods. […] The compounds were added to each reaction mixture individually at the final concentration indicated. After incubation with the diluted human GCase at 37° C. for 30 min, the reaction was stopped by addition of 0.2 M glycine buffer, pH 10.8, the released 4-methylumbelliferone was determined by a fluoremeter at excitation wavelength of 355 nm and emission wavelength at 460 nm, respectively. The relative enzyme activity was calculated as a percentage to those of reactions without inhibitors. IC50 was calculated using Prism sigmoid plot.

[2] = biological target: T2, GCase in fibroblasts from Gaucher patients with N370S/N370S mutation (Homo sapiens, UniProt P04062, N409S); assay: Chaperone activity for GCase in Gaucher patient fibroblasts (residual enzyme activity); format: cell-based; details: cultured with compound for 4 days
T2 construct: endogenous in cells; host or cells: fibroblasts from Gaucher patients homozygous for N370S
T2 sequence (P04062 40-536 N409S): T1 sequence (P04062 40-536) with N370S
Procedure: Methods. Fibroblasts established from Gaucher patients with N370S/N370S mutation were cultured in DMEM medium supplemented with 10% fetal bovine serum and antibiotics at 37° C. under 5% CO2. The GIZ was added into the culture medium at the final concentrations for 4 days prior to the assay. After washing the cells with phosphate-buffered saline, the cells were harvested and homogenized in the presence of 0.25% (w/v) sodium taurocholate and 0.1% (v/v) Triton X-100 in McIlvaine buffer (pH 5.2, Reaction Buffer), and 10 μl of the lysate was used for the determination of residual enzyme activity. The activity of the GCase was determined with 3 mM 4-MU-β-Glc in the Reaction Buffer at 37° C. for 1 hr as conduritol B epoxide (CBE)-sensitive activity in parallel assays without or with pre-incubation with CBE at 1.25 mM for 30 min at room temperature. Protein concentrations in the cell lysates were determined using micro BCA protein assay kit from Pierce.

[3] = shortly after the start of the treatment; cited from earlier work
GCase [4] = biological target: T1, GCase; details: literature values (Ogawa et al.); read-out: IC50 against GCase; cited from earlier work

| IC50 (GCase [1]) [nM] | increase of inhibitory potency relative to 2-PE-GIZ (GCase [1]) | Compound | further results |
| --- | --- | --- | --- |
| 0.03 | ~37 fold | CC(C)(C)CCc1cn2c(n1)[C@H](O)[C@@H](O)[C@H](O)[C@H]2CO [2-Dimethylbutyl GIZ, (5R,6R,7S,8S)-5-Hydroxymethyl-2-(3,3-dimethylbutyl)-5,6,7,8-tetrahydroimidazo[1,2-a]pyridine-6,7,8-triol] | – |
| 0.07 | approximately 15 fold | CCCCCCCCc1cn2c(n1)[C@H](O)[C@@H](O)[C@H](O)[C@H]2CO [2-Octyl GIZ, (5R,6R,7S,8S)-5-Hydroxymethyl-2-n-octyl-5,6,7,8-tetrahydroimidazo[1,2-a]pyridine-6,7,8-triol] | – |
| 1.1 | – | OC[C@@H]1[C@@H](O)[C@H](O)[C@@H](O)c2nc(CCc3ccccc3)cn21 [2-Phenylethyl GIZ, (5R,6R,7S,8S)-5-hydroxymethyl-2-phenethyl-5,6,7,8-tetrahydroimidazo[1,2-a]pyridine-6,7,8-triol] | – |

The remaining lines, values behind:

| Compound | IC50 (GCase [1]) [nM] | increase of inhibitory potency relative to 2-PE-GIZ (GCase [1]) | further results |
| --- | --- | --- | --- |
| OC[C@@H]1[C@@H](O)[C@H](O)[C@@H](O)c2nccn21 [GIZ, (5R,6R,7S,8S)-5-hydroxymethyl-5,6,7,8-tetrahydroimidazo[1,2-a]pyridine-6,7,8-triol] | 87 | – | increase of residual enzyme activity in patient cells [2]: approximately 2 fold; optimal concentration for the maximum enhancement [2]: ~300 µM |
| CCCCN1C[C@H](O)[C@@H](O)[C@H](O)[C@H]1CO [N-butyl 1-deoxynojirimycin (NB-DNJ), N-butyl 1-deoxynojirimycin] | – | – | patients with diarrhea (most frequent adverse effect) [3]: 79% |
| CCCCCCCCN[C@@H]1C=C(CO)[C@@H](O)[C@H](O)[C@H]1O [N-octyl valienamine] | – | – | IC50 (GCase [4]): ~300 nM |
